Read-outs that look alike come from different tables or passages of the source.
Experiments:
[1] = Solubility (qualitative remark); details: relative to parent indirubins / 3′-oximes
[2] = target: T1, AhR (Mus musculus, UniProt P30561); details: read-out: EC50 AhR (hepatoma cell line); Table 4; EGFP at 24 hours
T1 sequence (P30561 1-848): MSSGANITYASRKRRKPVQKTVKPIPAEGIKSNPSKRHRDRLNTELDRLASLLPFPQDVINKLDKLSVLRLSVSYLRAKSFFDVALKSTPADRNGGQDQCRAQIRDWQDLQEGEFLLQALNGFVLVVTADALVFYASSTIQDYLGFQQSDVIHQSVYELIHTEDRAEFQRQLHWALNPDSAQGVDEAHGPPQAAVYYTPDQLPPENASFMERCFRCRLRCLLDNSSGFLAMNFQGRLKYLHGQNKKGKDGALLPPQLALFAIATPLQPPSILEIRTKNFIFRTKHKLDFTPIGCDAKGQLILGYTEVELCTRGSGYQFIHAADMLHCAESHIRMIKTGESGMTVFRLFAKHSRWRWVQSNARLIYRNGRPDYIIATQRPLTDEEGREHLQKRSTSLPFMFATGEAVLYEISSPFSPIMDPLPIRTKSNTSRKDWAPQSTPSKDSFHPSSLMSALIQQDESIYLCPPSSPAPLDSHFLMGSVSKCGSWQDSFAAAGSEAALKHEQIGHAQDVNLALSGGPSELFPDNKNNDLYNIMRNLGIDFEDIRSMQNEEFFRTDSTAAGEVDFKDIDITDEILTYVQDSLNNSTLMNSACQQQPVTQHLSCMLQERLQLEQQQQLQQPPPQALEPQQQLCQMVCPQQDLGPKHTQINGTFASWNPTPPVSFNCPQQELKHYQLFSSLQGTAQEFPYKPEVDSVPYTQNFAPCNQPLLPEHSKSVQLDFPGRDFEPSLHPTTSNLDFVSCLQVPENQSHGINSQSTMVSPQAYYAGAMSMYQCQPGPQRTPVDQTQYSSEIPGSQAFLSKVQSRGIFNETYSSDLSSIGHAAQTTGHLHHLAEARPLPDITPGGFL

[3] = target: protein kinase C η (Homo sapiens, UniProt P24723); assay: protein kinase C η assay; details: read-out: IC50 protein kinase C η; Table 2, 15 μM ATP
Sequence of protein kinase C η (P24723 whole entry): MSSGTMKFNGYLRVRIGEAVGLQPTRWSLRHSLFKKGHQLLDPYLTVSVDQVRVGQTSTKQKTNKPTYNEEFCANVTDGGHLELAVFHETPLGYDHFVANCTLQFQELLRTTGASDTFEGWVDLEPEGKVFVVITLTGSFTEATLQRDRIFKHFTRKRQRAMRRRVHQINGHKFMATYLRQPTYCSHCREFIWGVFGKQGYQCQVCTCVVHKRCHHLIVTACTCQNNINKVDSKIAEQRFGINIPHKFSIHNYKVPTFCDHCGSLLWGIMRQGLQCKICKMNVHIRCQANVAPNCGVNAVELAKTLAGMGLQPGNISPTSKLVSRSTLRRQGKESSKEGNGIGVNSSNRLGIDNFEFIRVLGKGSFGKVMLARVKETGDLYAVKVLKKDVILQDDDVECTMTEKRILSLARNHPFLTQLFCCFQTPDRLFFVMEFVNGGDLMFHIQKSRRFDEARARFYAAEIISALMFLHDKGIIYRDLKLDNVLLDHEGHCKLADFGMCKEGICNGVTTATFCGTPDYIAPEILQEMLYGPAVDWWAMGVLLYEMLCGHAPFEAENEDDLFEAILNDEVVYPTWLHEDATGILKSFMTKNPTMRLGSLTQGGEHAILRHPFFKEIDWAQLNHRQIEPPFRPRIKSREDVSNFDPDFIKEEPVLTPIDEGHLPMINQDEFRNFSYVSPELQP

[4] = target: CDK4/cyclin D1 (Homo sapiens, UniProt P11802); assay: CDK4/cyclin D1 kinase assay; details: read-out: IC50 CDK4/cyclin D1; Table 2, 15 μM ATP
Sequence of CDK4/cyclin D1 (P11802 whole entry, species assumed): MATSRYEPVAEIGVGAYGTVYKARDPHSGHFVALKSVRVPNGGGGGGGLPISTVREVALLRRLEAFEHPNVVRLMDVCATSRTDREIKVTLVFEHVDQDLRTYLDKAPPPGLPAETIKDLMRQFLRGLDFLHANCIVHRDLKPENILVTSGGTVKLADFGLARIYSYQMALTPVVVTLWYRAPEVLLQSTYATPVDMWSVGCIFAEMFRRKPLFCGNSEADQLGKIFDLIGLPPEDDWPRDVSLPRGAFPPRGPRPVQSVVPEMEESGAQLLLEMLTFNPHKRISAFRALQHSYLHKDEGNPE
Sequence of CDK4/cyclin D1 (P24385 whole entry partner, species assumed): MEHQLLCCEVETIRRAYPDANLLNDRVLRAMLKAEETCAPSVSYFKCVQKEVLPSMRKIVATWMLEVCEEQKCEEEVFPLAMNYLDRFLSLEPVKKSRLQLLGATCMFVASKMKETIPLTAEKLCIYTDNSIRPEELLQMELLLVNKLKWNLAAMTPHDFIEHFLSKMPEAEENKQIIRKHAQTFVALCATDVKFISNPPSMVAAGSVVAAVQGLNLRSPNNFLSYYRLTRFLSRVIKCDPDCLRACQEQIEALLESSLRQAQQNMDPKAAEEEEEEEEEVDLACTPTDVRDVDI

[5] = target: erk1 (Homo sapiens, UniProt P27361); assay: erk1 kinase assay; details: read-out: IC50 erk1; Table 2, 15 μM ATP
Sequence of erk1 (P27361 whole entry, species assumed): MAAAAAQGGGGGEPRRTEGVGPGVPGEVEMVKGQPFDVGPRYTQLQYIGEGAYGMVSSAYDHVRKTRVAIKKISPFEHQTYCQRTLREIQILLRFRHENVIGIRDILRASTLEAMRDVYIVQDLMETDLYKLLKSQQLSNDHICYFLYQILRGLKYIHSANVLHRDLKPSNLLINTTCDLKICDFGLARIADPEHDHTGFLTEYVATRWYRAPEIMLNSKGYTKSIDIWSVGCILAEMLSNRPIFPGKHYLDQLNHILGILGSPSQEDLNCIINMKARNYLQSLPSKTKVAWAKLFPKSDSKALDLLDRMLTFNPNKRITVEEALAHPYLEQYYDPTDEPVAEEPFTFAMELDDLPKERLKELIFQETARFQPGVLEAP

[6] = target: protein kinase C β2 (Homo sapiens, UniProt P05771); assay: protein kinase C β2 assay; details: read-out: IC50 protein kinase C β2; Table 2, 15 μM ATP
Sequence of protein kinase C β2 (P05771 1-673 isoform P05771-2): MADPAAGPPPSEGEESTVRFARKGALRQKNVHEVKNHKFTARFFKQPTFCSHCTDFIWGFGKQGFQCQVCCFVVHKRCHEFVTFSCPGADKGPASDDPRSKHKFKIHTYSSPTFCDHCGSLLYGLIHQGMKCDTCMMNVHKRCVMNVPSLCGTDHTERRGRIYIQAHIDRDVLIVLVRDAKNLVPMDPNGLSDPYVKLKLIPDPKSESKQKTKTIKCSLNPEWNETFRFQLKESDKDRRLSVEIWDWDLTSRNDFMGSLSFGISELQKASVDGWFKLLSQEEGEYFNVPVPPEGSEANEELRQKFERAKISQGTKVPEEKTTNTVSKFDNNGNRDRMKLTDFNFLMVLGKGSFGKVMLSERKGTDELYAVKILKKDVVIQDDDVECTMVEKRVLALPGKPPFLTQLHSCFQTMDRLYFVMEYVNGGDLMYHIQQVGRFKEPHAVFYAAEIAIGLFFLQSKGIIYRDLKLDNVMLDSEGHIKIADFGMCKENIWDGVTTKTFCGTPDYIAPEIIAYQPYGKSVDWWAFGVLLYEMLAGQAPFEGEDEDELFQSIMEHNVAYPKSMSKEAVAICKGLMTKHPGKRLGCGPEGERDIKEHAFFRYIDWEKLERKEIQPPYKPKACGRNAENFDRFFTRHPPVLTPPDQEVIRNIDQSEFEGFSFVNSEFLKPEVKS

[7] = target: GSK-3α/β; assay: GSK-3α/β kinase assay (GS-1 peptide, 15 μM ATP); type: biochemical, porcine
[8] = target: protein kinase C δ (Homo sapiens, UniProt Q05655); assay: protein kinase C δ assay; details: read-out: IC50 protein kinase C δ; Table 2, 15 μM ATP
Sequence of protein kinase C δ (Q05655 whole entry): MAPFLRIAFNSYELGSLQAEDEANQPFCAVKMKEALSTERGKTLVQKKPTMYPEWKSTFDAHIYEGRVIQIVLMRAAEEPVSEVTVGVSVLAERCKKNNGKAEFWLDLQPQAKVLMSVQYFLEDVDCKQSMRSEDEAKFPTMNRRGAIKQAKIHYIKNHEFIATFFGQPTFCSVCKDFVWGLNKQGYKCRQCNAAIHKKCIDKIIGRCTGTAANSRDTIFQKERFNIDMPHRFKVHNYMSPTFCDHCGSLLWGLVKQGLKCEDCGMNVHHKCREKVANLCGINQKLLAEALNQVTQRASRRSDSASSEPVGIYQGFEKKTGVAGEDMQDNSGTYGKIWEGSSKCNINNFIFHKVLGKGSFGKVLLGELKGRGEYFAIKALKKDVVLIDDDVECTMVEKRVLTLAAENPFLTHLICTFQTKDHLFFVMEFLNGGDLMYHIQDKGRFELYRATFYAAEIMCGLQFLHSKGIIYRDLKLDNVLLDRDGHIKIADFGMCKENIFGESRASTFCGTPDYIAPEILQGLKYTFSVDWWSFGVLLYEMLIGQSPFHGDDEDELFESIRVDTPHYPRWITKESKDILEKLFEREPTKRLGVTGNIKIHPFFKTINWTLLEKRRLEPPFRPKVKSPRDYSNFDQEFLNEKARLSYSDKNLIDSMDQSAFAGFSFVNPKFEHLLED

[9] = target: protein kinase C α (Homo sapiens, UniProt P17252); assay: protein kinase C α assay; details: read-out: IC50 protein kinase C α; Table 2, 15 μM ATP
[10] = target: MAPKK; assay: MAPKK kinase assay; details: read-out: IC50 MAPKK; Table 2, 15 μM ATP
[11] = target: CDK5/p25 (Homo sapiens, UniProt Q00535); assay: CDK5/p25 kinase assay (histone H1, 15 μM ATP); type: biochemical, mammalian; details: read-out: IC50 CDK5/p25
Sequence of CDK5/p25 (Q00535 whole entry, species assumed): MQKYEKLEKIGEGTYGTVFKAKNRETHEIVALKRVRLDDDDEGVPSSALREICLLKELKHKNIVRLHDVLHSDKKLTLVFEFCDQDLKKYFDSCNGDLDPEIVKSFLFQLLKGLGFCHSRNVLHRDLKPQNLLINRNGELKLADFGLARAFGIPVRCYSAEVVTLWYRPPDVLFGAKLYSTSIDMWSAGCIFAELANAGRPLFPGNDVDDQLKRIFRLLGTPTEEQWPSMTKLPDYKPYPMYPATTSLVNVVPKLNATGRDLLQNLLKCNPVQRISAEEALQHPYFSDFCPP
Sequence of CDK5/p25 (Q15078 99-307 partner limits assumed, species assumed): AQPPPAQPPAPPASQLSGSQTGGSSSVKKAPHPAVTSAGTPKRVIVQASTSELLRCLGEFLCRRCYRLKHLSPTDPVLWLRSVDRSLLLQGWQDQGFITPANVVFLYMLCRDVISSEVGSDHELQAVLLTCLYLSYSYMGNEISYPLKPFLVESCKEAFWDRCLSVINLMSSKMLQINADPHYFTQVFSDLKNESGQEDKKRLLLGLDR

[12] = target: insulin receptor Tyr kinase; assay: insulin receptor Tyr kinase assay; details: read-out: IC50 insulin receptor Tyr kinase; Table 2, 15 μM ATP
[13] = target: T2, protein kinase C ε (Homo sapiens, UniProt Q02156); assay: protein kinase C ε assay; details: read-out: IC50 protein kinase C ε; Table 2, 15 μM ATP
T2 sequence (Q02156 1-737): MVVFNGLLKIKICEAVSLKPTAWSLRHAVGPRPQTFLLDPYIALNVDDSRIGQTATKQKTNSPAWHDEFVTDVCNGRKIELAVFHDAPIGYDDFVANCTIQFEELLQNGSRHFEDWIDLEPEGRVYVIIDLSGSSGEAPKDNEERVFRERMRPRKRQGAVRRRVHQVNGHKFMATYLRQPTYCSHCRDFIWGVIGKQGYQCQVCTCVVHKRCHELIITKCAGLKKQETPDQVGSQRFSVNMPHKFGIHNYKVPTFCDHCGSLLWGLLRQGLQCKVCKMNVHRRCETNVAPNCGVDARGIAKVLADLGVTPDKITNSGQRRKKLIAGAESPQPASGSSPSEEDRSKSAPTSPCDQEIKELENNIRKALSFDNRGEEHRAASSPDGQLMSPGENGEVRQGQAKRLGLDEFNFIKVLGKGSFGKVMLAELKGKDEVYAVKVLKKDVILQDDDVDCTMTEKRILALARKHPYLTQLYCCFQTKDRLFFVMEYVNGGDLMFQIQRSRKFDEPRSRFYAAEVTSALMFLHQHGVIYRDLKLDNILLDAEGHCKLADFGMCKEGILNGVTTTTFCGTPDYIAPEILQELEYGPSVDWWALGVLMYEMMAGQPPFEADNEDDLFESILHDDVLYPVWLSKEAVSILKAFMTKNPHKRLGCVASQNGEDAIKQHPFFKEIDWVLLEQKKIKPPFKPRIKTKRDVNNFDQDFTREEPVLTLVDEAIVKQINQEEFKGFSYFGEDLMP

[14] = target: protein kinase C γ (Homo sapiens, UniProt P05129); assay: protein kinase C γ assay; details: read-out: IC50 protein kinase C γ; Table 2, 15 μM ATP
[15] = Table 1, read-out: IC50 GSK-3 α/β
[16] = Table 2, 15 μM ATP, read-out: IC50 GSK-3α/β
[17] = Table 5, read-out: IC50 GSK-3α/β
[18] = Table 7, GSK-3, read-out: IC50exp

O=C1Nc2ccccc2/C1=C1/Nc2ccccc2/C1=N\O [7h, indirubin-3′-oxime]
solubility (in words) [1]: increased solubility | EC50 [2]: 720 nM

CC(=O)ON=C1C(=C2C(=O)Nc3cc(Br)ccc32)Nc2ccccc21 [8a, 6-Bromoindirubin-3′-acetoxime]
IC50 [3]: > 10000 nM | solubility (in words) [1]: less soluble | IC50 [4]: > 10000 nM | IC50 [5]: > 10000 nM | IC50 [6]: > 10000 nM | EC50 [2]: 160 nM | IC50 [7, 15]: 10 nM | IC50 [7, 16]: 10 nM | IC50 ([7]; Table 4, read-out: IC50 GSK-3): 10 nM | IC50 [7, 17]: 10 nM | IC50 [7, 18]: 10 nM | IC50 [8]: > 10000 nM | IC50 [9]: > 10000 nM | IC50 [10]: > 10000 nM | IC50 ([11]; Table 1): 2400 nM | IC50 ([11]; Table 5): 2400 nM | IC50 [12]: > 10000 nM | IC50 [13]: > 10000 nM | IC50 [14]: > 10000 nM

CON=C1C(=C2C(=O)Nc3cc(Br)ccc32)Nc2ccccc21 [9a, 6-Bromoindirubin-3′-methoxime]
IC50 [3]: > 10000 nM | solubility (in words) [1]: less soluble | IC50 [4]: > 10000 nM | IC50 [5]: > 10000 nM | IC50 [6]: > 10000 nM | EC50 [2]: 30 nM | IC50 [7, 15]: 30 nM | IC50 [7, 16]: 30 nM | IC50 ([7]; Table 4, read-out: IC50 GSK-3): 30 nM | IC50 [7, 17]: 30 nM | IC50 [7, 18]: 30 nM | IC50 [8]: > 10000 nM | IC50 [9]: > 10000 nM | IC50 [10]: > 10000 nM | IC50 ([11]; Table 1): 2200 nM | IC50 ([11]; Table 5): 2200 nM | IC50 [12]: > 10000 nM | IC50 [13]: > 10000 nM | IC50 [14]: > 10000 nM

Reference: US20070276025A1, “Indirubin-Type Compounds, Compositions, and Methods for Their Use” (priority 2003, published 2007)
